Experiment [1] concerns the target T1, Cathepsin K (Homo sapiens, UniProt P43235).
T1 sequence (P43235 whole entry): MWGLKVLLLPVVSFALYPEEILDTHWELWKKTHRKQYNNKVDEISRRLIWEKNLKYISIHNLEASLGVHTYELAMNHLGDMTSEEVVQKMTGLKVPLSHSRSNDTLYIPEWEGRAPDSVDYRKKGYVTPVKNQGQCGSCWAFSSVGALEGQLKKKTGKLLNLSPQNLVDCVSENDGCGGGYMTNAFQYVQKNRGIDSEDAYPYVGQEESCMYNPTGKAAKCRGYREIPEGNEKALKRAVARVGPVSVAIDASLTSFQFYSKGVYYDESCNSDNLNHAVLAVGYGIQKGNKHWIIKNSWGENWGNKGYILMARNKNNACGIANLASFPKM
The experiment can be described thus: (§1) Enzyme Assay: Recombinant human cathepsins (CatS, CatK, CatL) were purchased from a Enzo Life Sciences. All assays were carried out in 96-well format using a buffer of 50 mM KH2PO4, 50 mM NaCl, 2 mM EDTA, 0.5 mM DTT and 1% Triton-X-100, pH 6.5 for Cathepsin S and a buffer of 50 mM NaOAc, 10 mM EDTA, 1 mM DTT and 0.01% Triton-X-100, pH 5.5 for CatK/L/B. For CatS, the enzyme (0.0007 mU/well) was incubated with fluorogeninc substrate (Z-VVR-AMC, 5 μM) at RT for 10 min. For CatK the enzyme (0.00175 mU/well) was incubated with fluorogeninc substrate (Z-FR-AMC, 40 μM) at RT for 10 min. For CatL, the enzyme (0.000874 mU/well) was incubated with fluorogeninc substrate (Z-VVR-AMC, 40 μM) at RT for 10 min. Flourogenic substrate turnover was detected using a microplate reader (Synergy H4, BioTek). Ki values were calculated using the Cheng Prusoff equation (Cheng & Prosoff 1973).

Experiment [2] has as its target Cathepsin S (Homo sapiens, UniProt P25774). The experiment is described as §1.

SMILES strings stand for the structures.

The term Ki denotes a dissociation constant, usually derived from enzyme kinetics or from competition with a known ligand.

Cathepsin S, sequence (P25774 whole entry): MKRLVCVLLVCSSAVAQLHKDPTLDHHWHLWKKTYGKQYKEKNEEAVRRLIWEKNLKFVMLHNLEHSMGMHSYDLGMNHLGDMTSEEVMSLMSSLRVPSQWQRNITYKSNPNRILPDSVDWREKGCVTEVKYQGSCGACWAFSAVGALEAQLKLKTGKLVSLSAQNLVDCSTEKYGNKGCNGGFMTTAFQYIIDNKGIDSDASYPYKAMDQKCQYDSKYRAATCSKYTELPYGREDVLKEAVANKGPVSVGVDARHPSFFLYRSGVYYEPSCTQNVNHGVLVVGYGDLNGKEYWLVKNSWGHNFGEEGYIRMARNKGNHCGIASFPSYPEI

As to `O=C(N[C@H](C(=O)N1C[C@H](Cl)[C@H]2OCC(=O)[C@H]21)C1CCCCC1)c1ccc(-c2ccncn2)o1`, the inhibition constant (Ki) in experiment [1] is 262 nM; in experiment [2], 699 nM.

Take `Cc1nccc(-c2ccc(C(=O)N[C@H](C(=O)N3C[C@H](Cl)[C@H]4OCC(=O)[C@H]43)C3CCCCC3)s2)n1`: the Ki is 9 nM in experiment [1] and 238 nM in experiment [2]. On to `O=C(N[C@H](C(=O)N1C[C@H](Cl)[C@H]2OCC(=O)[C@H]21)C1CCCCC1)c1nnc(-c2ccncc2)s1`, for which the Ki in experiment [1] was 14 nM. With `O=C(N[C@H](C(=O)N1C[C@H](Cl)[C@H]2OCC(=O)[C@H]21)C1CCCCC1)c1ccc(-c2cccnc2)o1`, the Ki in experiment [1] is 54 nM; in experiment [2], 612 nM.

As to `COc1ccc(-c2ccc(C(=O)N[C@H](C(=O)N3C[C@H](Cl)[C@H]4OCC(=O)[C@H]43)C3CCCCC3)s2)nn1`, the Ki in experiment [1] was 16 nM; in experiment [2], 344 nM. Take `O=C(N[C@H](C(=O)N1C[C@H](Cl)[C@H]2OCC(=O)[C@H]21)C1CCCCC1)c1cnc(-c2ccnnc2)o1`: the Ki in experiment [1] is 278 nM; in experiment [2], 527 nM.

These data come from ChEMBL document CHEMBL5726286, “3-oxo-tetrahydro-furo[3,2-B]pyrrol-4(5H)-yl) derivatives I” (2017).
